Test results as given in patent US20250115597A1, “TYK2 INHIBITORS AND COMPOSITIONS AND METHODS THEREOF” (LYNK PHARMACEUTICALS CO. LTD., priority 2021, published 2025).
pIC50: −log10 of the molar value. In brackets after ≈: the same amount, converted by molar mass. Like-named read-outs stand apart in the source and are kept apart here.

Key:
[1] = molecular target: T1, Ba/F3-FL-TYK2-P760L cells (Homo sapiens, UniProt P29597, P760L, cells depend on it); experiment: Anti-proliferative assay, Ba/F3-FL-TYK2-P760L cells (Cell-Titer Glo); type: cell-based; details: 72 h, read-out: BaF3-FL-T2P760L IC50
T1 construct: BaF3-FL-T2P760L (nM)
T1 sequence (P29597 whole entry P760L): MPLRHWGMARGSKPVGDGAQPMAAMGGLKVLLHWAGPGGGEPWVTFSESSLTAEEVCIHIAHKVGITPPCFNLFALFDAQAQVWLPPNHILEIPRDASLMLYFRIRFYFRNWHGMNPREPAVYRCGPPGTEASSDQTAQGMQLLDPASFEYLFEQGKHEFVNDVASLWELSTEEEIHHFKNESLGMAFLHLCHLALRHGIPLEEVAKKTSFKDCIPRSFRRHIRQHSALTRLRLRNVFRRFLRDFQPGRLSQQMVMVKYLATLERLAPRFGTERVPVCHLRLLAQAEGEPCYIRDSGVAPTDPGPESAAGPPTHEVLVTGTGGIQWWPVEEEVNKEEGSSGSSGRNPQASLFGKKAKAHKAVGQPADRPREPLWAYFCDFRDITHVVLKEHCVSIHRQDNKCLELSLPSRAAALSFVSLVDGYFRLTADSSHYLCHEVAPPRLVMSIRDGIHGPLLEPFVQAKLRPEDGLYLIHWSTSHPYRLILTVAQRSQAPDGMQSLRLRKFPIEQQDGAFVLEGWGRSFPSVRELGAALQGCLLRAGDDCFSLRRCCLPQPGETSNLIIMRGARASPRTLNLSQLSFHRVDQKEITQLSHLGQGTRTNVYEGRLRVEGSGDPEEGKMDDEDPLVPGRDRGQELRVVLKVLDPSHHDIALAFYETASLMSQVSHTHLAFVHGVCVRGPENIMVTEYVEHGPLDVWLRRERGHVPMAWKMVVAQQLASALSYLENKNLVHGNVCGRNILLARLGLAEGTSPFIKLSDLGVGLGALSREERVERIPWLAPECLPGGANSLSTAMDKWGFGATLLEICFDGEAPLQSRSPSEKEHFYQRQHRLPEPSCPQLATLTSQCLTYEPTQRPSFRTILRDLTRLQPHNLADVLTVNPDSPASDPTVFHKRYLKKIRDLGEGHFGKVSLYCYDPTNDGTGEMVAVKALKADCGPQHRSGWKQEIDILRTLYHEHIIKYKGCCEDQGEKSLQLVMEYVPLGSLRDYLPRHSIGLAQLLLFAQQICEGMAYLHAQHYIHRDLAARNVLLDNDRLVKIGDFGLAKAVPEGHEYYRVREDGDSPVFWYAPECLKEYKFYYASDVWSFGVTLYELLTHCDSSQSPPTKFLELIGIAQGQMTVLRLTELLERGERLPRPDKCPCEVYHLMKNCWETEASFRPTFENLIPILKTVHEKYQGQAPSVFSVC
Summary of the method: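 Ba/F3 cells made IL-3-independent by TEL-fused or full-length mutant JAK-family kinases, seeded at 2000/well and dosed after 24 h with 9 three-fold dilutions topping at 20 μM. Viability after 72 h at 37 °C, 5% CO2 by Cell-Titer Glo ATP luminescence.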

Ba/F3-TEL-TYK2 cells = molecular target: T2, Ba/F3-TEL-TYK2 cells (Homo sapiens, UniProt P29597); experiment: Anti-proliferative assay, Ba/F3-TEL-TYK2 cells (Cell-Titer Glo); type: cell-based; details: 72 h, read-out: BaF3-TEL-TYK2 IC50
T2 construct: fused on or other part: Dimerization domain of TEL (ETV6) fused to the TYK2 kinase domain; P41212 (Transcription factor ETV6)
T2 sequence (P29597 whole entry, change not shown, the tested form may be a part): as the sequence (P29597 whole entry P760L) above, with L760P counted along it
Protocol: (§1) Anti-Proliferative Assay Dimerization domain of Tel protein fused with JAK kinase domain was permanently transduced into Ba/F3 cells, whose proliferation is dependent on JAK activity in the absence of IL-3 induction. These engineered Ba/F3 cells (Ba/F3-FL-TYK2-[…], Ba/F3-TEL-TYK2 and Ba/F3-TEL-JAK2) were used to monitor JAK inhibitory activities of the compounds in the cellular. […] Cells were seeded at 2000/well of white flat bottom 96-well plates. The well containing medium only was used as background control. After 24 h growth, cells were treated with compounds. The test compounds were dissolved in DMSO to a stock concentration of 20 mM. 3-fold serially diluted compounds for 9 concentrations with top concentration of 20 μM was added into the each well. […] The cells continued to grow at 37° C. in 5% CO2 for 72 h after compound treatment. The viability was measured by cellular ATP determination using the Cell-Titer Glo luciferase reagent (Promega). The Luminescence value was recorded by a multi-label reader Envision (PerkinElmer).

Ba/F3-TEL-JAK2 cells = molecular target: T3, Ba/F3-TEL-JAK2 cells (Homo sapiens, UniProt O60674); experiment: Anti-proliferative assay, Ba/F3-TEL-JAK2 cells (Cell-Titer Glo); type: cell-based; details: 72 h, read-out: BaF3-TEL-JAK2 IC50
T3 construct: fused on or other part: Dimerization domain of TEL (ETV6) fused to the JAK2 kinase domain; P41212 (Transcription factor ETV6)
T3 sequence (O60674 whole entry, change not shown, the tested form may be a part): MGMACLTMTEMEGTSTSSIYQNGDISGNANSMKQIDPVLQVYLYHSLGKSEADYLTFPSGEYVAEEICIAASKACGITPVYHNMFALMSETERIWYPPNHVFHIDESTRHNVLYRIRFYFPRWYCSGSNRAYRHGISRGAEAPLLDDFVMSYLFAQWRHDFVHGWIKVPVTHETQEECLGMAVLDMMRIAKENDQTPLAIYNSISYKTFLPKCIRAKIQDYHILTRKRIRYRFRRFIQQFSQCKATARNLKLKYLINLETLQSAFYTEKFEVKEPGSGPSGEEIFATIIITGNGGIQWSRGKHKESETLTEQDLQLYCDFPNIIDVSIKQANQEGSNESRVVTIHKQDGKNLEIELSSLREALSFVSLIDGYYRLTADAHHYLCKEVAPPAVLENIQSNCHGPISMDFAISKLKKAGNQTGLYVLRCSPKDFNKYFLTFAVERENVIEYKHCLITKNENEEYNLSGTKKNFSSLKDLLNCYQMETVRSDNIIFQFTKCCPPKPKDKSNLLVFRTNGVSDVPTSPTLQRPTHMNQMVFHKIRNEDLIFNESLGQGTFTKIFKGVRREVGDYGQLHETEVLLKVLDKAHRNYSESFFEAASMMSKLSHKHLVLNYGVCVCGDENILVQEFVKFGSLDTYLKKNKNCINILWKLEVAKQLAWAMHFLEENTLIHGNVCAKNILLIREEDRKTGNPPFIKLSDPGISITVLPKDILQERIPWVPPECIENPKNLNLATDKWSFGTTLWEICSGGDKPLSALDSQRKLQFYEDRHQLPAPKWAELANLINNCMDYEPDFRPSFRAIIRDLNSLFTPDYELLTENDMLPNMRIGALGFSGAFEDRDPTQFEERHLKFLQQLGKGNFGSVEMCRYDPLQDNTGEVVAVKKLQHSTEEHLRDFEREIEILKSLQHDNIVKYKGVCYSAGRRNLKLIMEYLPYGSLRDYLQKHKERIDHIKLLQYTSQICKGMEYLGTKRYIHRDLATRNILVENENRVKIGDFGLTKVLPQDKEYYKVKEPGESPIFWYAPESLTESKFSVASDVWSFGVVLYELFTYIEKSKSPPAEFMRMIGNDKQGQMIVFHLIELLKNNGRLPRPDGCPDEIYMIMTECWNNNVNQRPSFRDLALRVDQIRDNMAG
Protocol: as §1

TYK2-JH2 domain = molecular target: T4, TYK2-JH2 domain (Homo sapiens, UniProt P29597); experiment: Binding activity test for JH2 domain of TYK2 (Tb-antibody/tracer FRET); details: for JAK1/TYK2 selectivity: ratio JAK1-JH2 IC50 / TYK2-JH2 IC50
T4 construct: IC50 on JH2 domain activity (nM)
T4 sequence (P29597 589-875 limits assumed): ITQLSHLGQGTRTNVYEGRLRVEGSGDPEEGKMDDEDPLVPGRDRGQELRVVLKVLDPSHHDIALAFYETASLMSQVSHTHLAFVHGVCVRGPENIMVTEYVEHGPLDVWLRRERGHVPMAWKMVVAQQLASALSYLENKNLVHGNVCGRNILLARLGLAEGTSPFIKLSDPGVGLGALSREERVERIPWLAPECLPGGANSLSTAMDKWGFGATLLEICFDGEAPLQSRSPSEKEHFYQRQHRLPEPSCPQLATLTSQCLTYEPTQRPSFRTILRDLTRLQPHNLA
Summary of the method: (§2)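 Compounds tested as 11-point 3-fold serial dilutions against the JH2 domain in a Tb-antibody/tracer FRET binding format. Plates incubated 60 min at 25° C, then overnight at 4° C, before FRET reading.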

[2] = Plasma protein binding by equilibrium dialysis; type: in vitro ADME; details: human plasma, equilibrium dialysis 5 hours at 37° C.; read-out: % Bound (human) (converted)
Protocol: Plasma Protein Binding by Equilibrium Dialysis
Aliquots of test compound stock solution and warfarin stock solution were spiked into plasma to give the matrix solutions with theoretical concentrations of test compound at 0.2 and 2 μM or warfarin at 2 μM. Immediately transfer 50 μL of the spiked plasma solution suspension to a 96-well plate to act as T=0 control sample. Assemble the dialysis set up following the manufacturer's instructions. Load cells with 150 μL of plasma sample and dialyzed against equal volume of dialysis buffer (PBS). The assay is performed in duplicate. Cover the unit with gas permeable lid and incubate for 5 hours at 37° C. at 100 rpm in a constant temperature shaking box. At the end of incubation, remove lid and pipette 50 μL of post-dialysis samples from both buffer and plasma solution chambers into separated 96-well plate for analysis, respectively. Add 50 μL of plasma solution to the buffer samples, and an equal volume of PBS to the collected plasma solution samples. Shake the plate at 1000 rpm for 2 minutes and add 600 μL of 50% ACN/MeOH containing an appropriate internal standard (IS) to precipitate protein and release compound. Vortex at 1000 rpm for 10 minutes. Centrifuge for 10 minutes at 4000 rpm. Then transfer 75 μL of the supernatant to new 96-well plates for analysis. Add 150 μL of distilled water to each sample and mix for analysis by LC-MS/MS.
The free rate (% Unbound), binding rate (% Bound), and recovery rate (% Recovery) of the compound are calculated as follows: […]

Kinetic solubility = type: physicochemical; details: phosphate buffer, aqueous buffer, kinetic from dmso stock, PBS (pH 7.4), 1% DMSO, room temperature
Protocol: Aliquots of 8 μL of reference and test compound stock solutions (10 mM/5 mM) are added into 792 μL of 100 mM pH 7.4 phosphate buffer. The final DMSO concentration is 1%. Sample tubes are shaken for 2 hours at 1000 rpm at room temperature. Samples are centrifuged at 12000 rpm for 10 min to precipitate un-dissolved particles. And transfer the supernatants to a new tube or plate. Add 5 μL of samples (no diluted, 10 times diluted and 100 times diluted) and standard curve samples to 95 μL of ACN containing IS for LC-MS/MS analysis.

JAK1-JH2 domain = molecular target: T5, JAK1-JH2 domain (Homo sapiens, UniProt P23458); experiment: Binding activity test for JH2 domain of JAK1 (Tb-antibody/tracer FRET)
T5 construct: IC50 on JH2 domain activity (nM)
T5 sequence (P23458 583-855 limits assumed): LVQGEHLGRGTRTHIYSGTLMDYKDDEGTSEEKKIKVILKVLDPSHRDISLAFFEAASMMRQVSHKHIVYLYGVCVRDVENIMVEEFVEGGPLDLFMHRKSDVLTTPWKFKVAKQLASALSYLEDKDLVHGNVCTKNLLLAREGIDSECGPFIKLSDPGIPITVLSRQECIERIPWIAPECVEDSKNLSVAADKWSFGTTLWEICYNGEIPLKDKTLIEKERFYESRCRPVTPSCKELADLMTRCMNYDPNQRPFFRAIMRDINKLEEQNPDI
Summary of the method: as §2

pSTAT1 = experiment: Phosphorylation inhibition of STAT in human whole blood, IFN-alpha stimulated (flow cytometry); type: cell-based; details: 20 min; human whole blood, IFN-alpha 20 mins, CD3 cells; read-out: IC50 on pSTAT1 inhibition in h WB
Summary of the method: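 Freshly prepared PBMC or freshly collected whole blood stimulated with human Universal Type I IFN-alpha for 20 min, then fixed, permeabilized on ice and stained for CD3 and pSTAT1 (Y701). pSTAT1 read by flow cytometry; IC50 from 4-parameter logistic fit.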

[3] = Microsomal metabolic stability assay; type: in vitro ADME; details: pH 7.4, 0.5 mg/mL protein, 1 μM compound
Summary of the method: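 Test article at 1 μM with 0.5 mg/mL microsomal protein and 2 mM NADPH, in 100 mM potassium phosphate pH 7.4 with 1.0 mM EDTA at 37 °C. Sampled at 0–45 min and quantified by LC/MS/MS. T1/2 from the slope of ln % remaining vs time.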

JAK1 = molecular target: T6, JAK1 (Homo sapiens, UniProt P23458); experiment: JAK1 kinase activity, microfluidic assay (Caliper EZ Reader II); type: biochemical; details: JAK1 5 nM, 1 mM ATP
T6 construct: purchased Carna Biosciences
T6 sequence (P23458 whole entry): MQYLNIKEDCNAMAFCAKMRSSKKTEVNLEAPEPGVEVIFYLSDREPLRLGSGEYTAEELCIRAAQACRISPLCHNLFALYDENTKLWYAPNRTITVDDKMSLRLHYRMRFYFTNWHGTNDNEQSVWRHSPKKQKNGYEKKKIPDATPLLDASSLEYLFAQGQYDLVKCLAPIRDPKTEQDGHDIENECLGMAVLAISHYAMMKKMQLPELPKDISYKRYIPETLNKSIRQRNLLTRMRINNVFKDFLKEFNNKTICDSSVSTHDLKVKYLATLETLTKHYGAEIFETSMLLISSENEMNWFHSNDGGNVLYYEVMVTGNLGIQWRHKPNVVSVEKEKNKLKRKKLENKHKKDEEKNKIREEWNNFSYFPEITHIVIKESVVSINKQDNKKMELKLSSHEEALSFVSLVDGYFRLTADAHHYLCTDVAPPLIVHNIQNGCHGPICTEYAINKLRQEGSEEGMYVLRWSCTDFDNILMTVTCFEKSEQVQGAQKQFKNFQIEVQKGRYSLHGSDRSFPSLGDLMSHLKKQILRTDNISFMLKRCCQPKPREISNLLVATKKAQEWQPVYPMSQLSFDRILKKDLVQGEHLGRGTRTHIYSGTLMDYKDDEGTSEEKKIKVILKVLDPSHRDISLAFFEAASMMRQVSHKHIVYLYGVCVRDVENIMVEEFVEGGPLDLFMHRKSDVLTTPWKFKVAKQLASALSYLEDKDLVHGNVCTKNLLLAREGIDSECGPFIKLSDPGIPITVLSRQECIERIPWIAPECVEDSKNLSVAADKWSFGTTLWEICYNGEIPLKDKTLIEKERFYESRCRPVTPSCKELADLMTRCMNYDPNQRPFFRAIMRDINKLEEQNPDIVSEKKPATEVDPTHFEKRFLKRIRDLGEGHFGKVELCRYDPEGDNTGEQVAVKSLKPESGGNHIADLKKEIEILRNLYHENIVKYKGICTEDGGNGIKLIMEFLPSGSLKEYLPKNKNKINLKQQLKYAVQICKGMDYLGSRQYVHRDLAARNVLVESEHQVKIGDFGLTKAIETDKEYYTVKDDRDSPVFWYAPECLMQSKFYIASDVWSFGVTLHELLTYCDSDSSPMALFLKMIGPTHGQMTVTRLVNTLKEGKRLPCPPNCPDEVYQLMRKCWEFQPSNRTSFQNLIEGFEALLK
Protocol: (§3) Testing for JAK1, JAK2 and TYK2 Kinase Activities
(§4) JAK activity was determined in the reaction buffer 50 mM HEPES, 0.01% Brij35, 10 mM MgCl2, 2 mM DTT by a microfluidic assay. The phosphorylation of a FAM labeled peptide substrate was monitored in the Caliper EZ Reader II (Perkin Elmer). The assay condition for each batch of enzyme (Carna Biosciences) was optimized to obtain 10% conversion rate of peptide substrate.
(§5) The test compounds were dissolved in DMSO to a stock concentration of 10 mM. Three-fold serially diluted compounds with top concentration of 5 μM were pre-incubated with JAK1, JAK2 or TYK2 for 10 min at ambient temperature. The final DMSO concentration of assay mixture was 1%. […] The reaction was stopped by adding 50 mM EDTA.
(§6) The percent inhibition was calculated by the following formula:
(§7) [formula] • wherein • Conversion %_max=the conversion rate in the positive well without addition of compound • Conversion %_sample=the conversion rate of test compounds • Conversion %_min=the conversion rate in the well without addition of enzyme
(§8) The dose-response (percent inhibition) curve was plotted and IC50 values were determined by GraphPad software.

JAK2 = molecular target: T7, JAK2 (Homo sapiens, UniProt O60674); experiment: JAK2 kinase activity, microfluidic assay (Caliper EZ Reader II); type: biochemical; details: JAK2 0.125 nM, 1 mM ATP
T7 construct: purchased Carna Biosciences
T7 sequence (O60674 whole entry): as the sequence (O60674 whole entry, change not shown, the tested form may be a part) above
Protocol: as §3, §4, §5, §6, §7, §8

TYK2 = molecular target: T8, TYK2 (Homo sapiens, UniProt P29597); experiment: TYK2 kinase activity, microfluidic assay (Caliper EZ Reader II); type: biochemical; details: TYK2 1 nM, 1 mM ATP
T8 construct: purchased Carna Biosciences
T8 sequence (P29597 whole entry): as the sequence (P29597 whole entry P760L) above, with L760P counted along it
Protocol: as §3, §4, §5, §6, §7, §8

[4] = dog liver microsomes, read-out: Dog LM Clint
[5] = dog liver microsomes, read-out: Dog LM T½
[6] = human liver microsomes, read-out: Human LM Clint
[7] = human liver microsomes, read-out: Human LM T½
[8] = rat liver microsomes, read-out: Rat LM Clint
[9] = rat liver microsomes, read-out: Rat LM T½

Structure (SMILES) | GI50 [1] [µM] | GI50 (Ba/F3-TEL-TYK2 cells) [µM] | GI50 (Ba/F3-TEL-JAK2 cells) [µM] | pIC50 (TYK2-JH2 domain) | fraction unbound at 5 h [2] | solubility at 2 h (Kinetic solubility) [µM] | JAK1/TYK2 selectivity (TYK2-JH2 domain) | pIC50 (JAK1-JH2 domain) | pIC50 (pSTAT1) | microsomal CLint at 1 μM [3, 4] [µL/min/mg] | half-life at 1 μM [3, 5] [min] | microsomal CLint at 1 μM [3, 6] [µL/min/mg] | half-life at 1 μM [3, 7] [min] | microsomal CLint at 1 μM [3, 8] [µL/min/mg] | half-life at 1 μM [3, 9] [min] | pIC50 (JAK1) | pIC50 (JAK2) | pIC50 (TYK2)
[2H]C([2H])([2H])NC(=O)c1cnc(Nc2ccc(Cl)cc2)nc1Nc1cccc(-c2ncn(C)n2)c1OC [Example 3, 2-((4-Chlorophenyl)amino)-4-((2-methoxy-3-(1-methyl-1H-1,2,4-triazol-3-yl)phenyl)amino)-N-(methyl-d3) pyrimidine-5-carboxamide] | 0.0707 | 5.44 | 2.3 | – | – | – | – | – | – | – | – | – | – | – | – | – | – | –
CNC(=O)c1cnc2nc1Nc1cc(cc(-c3ncn(C)n3)c1OC)COCc1cc(ccc1F)N2 [Example 36, 18-Fluoro-10-methoxy-N-methyl-11-(1-methyl-1H-1,2,4-triazol-3-yl)-15-oxa-2,4,8,23-tetraazatetracyclo[15.3.1.1^{3,7}.1^{9,13}]tricosa-1(20),3,5,7(23),9(22),10,12,17(21),18-nonaene-6-carboxamide] | 0.173 | 1.96 | 0.892 | – | – | – | – | – | – | – | – | – | – | – | – | – | – | –
[2H]C([2H])([2H])NC(=O)c1cnc(NC(=O)C2CC2)cc1Nc1ccc2cn[nH]c2c1OC [Example 207, 6-(Cyclopropanecarboxamido)-4-((7-methoxy-1H-indazol-6-yl)amino)-N-(methyl-d3)nicotinamide] | 0.149 | – | – | 9.39 | 0.039 | 8.45 (≈ 3.24 µg/mL) | – | – | – | – | – | – | – | – | – | – | – | –
[2H]C([2H])([2H])NC(=O)c1cnc(NC(=O)C2CC2)cc1Nc1cn(C)c2ncn([C@H](C)C(F)(F)F)c(=O)c12 (single isomer, unassigned) [Example 234A, (R*)-6-(cyclopropanecarboxamido)-N-(methyl-d3)-4-((7-methyl-4-oxo-3-(1,1,1-trifluoropropan-2-yl)-4,7-dihydro-3H-pyrrolo[2,3-d]pyrimidin-5-yl)amino)nicotinamide] | – | – | – | 9.28 | 0.123 | 29.9 (≈ 14.4 µg/mL) | 46.7 | 7.61 | 6.31 | 10.9 | 127 | 24.3 | 57 | 35.3 | 39.3 | – | – | –
[2H]C([2H])([2H])NC(=O)c1cnc(NC(=O)C2CC2)cc1Nc1ccc2cnn(C)c2c1OC [Example 206, 6-(Cyclopropanecarboxamido)-4-((7-methoxy-1-methyl-1H-indazol-6-yl)amino)-N-(methyl-d3)nicotinamide] | 0.0685 | – | – | 9.21 | 0.07 | 28.7 (≈ 11.4 µg/mL) | 17.6 | 7.96 | – | – | – | – | – | – | – | – | – | –
CCn1ncc2cnc(Nc3cc(NC(=O)C4CC4)ncc3C(=O)NC)c(OC)c21 [Example 261, 6-(Cyclopropanecarboxamido)-4-((1-ethyl-7-methoxy-1H-pyrazolo[4,3-c]pyridin-6-yl)amino)-N-methylnicotinamide] | 0.113 | – | – | 9.02 | 0.085 | 58 (≈ 23.8 µg/mL) | 47.4 | 7.34 | – | – | – | – | – | – | – | < 5.30 | < 5.30 | < 5.30
[2H]C([2H])([2H])NC(=O)c1cnc(NC(=O)C2CC2)cc1Nc1ccc2cnn(CC(F)F)c2c1OC [Example 131, 6-(Cyclopropanecarboxamido)-4-((1-(2,2-difluoroethyl)-7-methoxy-1H-indazol-6-yl)amino)-N-(methyl-d3)nicotinamide] | 0.0654 | – | – | 9.48 | 0.046 | 32.1 (≈ 14.4 µg/mL) | 40.2 | 7.88 | – | 65.8 | 21.1 | 95 | 14.6 | 109 | 12.8 | – | – | –
